Reference: patent publication US7893074B2, “2, 4-pyrimidinediamines useful in the treatment of neoplastic diseases, inflammatory and immune system disorders” (Novartis AG, priority 2003, dated 2011)
Where two headings read alike, the source gives them in different places.

What was measured:
[1] = target: Focal Adhesion Kinase (FAK) (Homo sapiens, UniProt Q05397); test: FAK assay system (Focal Adhesion Kinase inhibition); type: biochemical
[2] = target: IGF-IR (Homo sapiens, UniProt P08069); test: Cellular Capture ELISA of IGF-I induced autophosphorylation of the IGF-IR; type: cell-based; details: read-out: IGF-1R IC50
IGF-IR, sequence (P08069 31-1367): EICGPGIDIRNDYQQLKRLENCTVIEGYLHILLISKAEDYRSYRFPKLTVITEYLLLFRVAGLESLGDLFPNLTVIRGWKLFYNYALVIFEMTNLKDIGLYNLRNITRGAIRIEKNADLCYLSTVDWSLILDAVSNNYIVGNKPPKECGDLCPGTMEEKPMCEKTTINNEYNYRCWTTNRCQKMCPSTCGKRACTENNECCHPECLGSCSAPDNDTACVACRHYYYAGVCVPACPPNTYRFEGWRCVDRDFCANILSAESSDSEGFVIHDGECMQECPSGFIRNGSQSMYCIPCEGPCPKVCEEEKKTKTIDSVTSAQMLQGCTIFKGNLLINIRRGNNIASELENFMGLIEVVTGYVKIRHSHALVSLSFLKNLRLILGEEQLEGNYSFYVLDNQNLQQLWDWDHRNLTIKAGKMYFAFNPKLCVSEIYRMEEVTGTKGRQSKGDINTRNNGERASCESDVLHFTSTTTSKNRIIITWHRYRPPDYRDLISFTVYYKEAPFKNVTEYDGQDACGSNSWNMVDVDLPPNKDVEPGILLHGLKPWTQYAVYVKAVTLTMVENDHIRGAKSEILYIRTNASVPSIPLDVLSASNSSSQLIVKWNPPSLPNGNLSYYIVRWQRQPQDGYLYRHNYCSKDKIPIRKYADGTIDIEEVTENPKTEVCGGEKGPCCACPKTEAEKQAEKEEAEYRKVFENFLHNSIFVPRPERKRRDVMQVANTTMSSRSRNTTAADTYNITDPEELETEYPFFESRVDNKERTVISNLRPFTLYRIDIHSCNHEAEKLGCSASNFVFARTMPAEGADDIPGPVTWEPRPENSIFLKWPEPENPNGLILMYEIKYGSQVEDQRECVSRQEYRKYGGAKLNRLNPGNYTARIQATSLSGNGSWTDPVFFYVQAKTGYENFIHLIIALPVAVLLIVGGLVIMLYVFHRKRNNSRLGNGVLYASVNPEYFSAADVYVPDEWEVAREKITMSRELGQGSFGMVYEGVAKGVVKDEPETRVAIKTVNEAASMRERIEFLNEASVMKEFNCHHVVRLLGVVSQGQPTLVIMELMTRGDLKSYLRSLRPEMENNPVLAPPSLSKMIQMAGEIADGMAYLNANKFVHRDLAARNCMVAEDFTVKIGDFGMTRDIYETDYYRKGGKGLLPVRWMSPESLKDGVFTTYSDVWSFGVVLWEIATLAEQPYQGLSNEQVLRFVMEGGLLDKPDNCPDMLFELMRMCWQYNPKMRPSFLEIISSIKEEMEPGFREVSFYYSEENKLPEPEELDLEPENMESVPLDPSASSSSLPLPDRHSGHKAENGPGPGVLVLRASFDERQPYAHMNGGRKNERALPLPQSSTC
Experimental: In this assay the activity of the compounds of the invention against Insulin-like growth factor I (IGF-I) induced autophosphorylation of the IGF-IR is determined.

[3] = tested on: Mouse mammary carcinoma 4T1 cells; test: Anchorage-independent tumor cell growth assay; type: cell-based; details: Mus musculus, 4T1
Experimental: Cells are cultured for 2 h and inhibitors are added at various concentrations in a final concentration of 0.1% DMSO. After 48 h, cell growth is assayed with the cell counting kit-8 (Wako Pure Chemical), which uses a water soluble tetrazolium salt WST8. Twenty μL of the reagent is added into each well and cells are further cultured for 2 h. The optical density is measured at 450 nm.

[4] = target: FAK (Mus musculus, UniProt P34152); test: Phos IC50 (phosphorylation); type: cell-based
FAK, sequence (P34152 2-1052): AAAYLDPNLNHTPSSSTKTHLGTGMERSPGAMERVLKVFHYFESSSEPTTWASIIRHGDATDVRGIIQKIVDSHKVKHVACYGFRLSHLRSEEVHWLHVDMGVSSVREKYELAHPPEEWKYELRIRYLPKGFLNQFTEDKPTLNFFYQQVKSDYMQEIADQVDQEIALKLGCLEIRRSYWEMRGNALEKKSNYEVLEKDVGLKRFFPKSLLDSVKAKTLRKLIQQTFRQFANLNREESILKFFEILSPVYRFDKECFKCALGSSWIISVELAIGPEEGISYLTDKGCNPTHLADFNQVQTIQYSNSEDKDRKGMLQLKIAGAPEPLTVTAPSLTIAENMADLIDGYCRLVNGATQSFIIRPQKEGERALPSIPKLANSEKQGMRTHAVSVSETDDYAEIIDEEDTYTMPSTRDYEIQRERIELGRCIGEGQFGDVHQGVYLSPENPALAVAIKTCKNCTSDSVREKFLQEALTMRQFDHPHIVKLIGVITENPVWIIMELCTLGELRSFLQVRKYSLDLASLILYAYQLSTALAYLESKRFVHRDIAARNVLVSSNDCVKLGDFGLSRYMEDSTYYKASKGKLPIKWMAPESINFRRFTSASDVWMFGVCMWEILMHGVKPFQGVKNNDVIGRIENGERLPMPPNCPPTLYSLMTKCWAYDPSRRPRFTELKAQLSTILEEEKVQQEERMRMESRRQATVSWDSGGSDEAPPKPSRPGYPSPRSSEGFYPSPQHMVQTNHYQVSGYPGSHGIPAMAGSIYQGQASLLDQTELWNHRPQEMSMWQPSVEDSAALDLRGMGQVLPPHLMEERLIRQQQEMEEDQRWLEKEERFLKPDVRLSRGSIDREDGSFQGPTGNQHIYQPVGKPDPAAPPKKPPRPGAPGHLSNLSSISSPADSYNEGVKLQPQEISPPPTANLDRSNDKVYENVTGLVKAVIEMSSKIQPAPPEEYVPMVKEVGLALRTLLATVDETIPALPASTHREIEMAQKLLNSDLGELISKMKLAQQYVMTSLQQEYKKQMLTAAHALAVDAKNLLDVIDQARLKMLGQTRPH

Focal Adhesion Kinase (FAK), sequence (Q05397 384-706): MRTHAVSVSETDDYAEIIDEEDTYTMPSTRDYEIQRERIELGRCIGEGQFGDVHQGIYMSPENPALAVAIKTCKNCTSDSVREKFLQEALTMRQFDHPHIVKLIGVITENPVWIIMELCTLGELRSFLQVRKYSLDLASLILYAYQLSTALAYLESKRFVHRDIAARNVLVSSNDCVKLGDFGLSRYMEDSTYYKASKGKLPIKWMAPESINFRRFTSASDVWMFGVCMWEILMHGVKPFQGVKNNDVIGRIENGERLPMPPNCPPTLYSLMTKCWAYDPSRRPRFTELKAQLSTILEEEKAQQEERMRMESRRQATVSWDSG

IC50 ([1]; read-out: FAK IC50) [nM] | IC50 [2] [nM] | IC50 [3] [nM] | IC50 [4] [nM] | IC50 ([1]; FAK assay system, read-out: FAK inhibition IC50) [nM] | Compound
6.8 | 100 | 800 | 350 | – | CNS(=O)(=O)c1ccccc1Nc1nc(Nc2ccc(N3CCOCC3)cc2OC)ncc1Br [Example 3-19, 2-[5-Bromo-2-(2-methoxy-4-morpholin-4-yl-phenylamino)-pyrimidin-4-ylamino]-N-methyl-benzenesulfonamide]
4.7 | 190 | 540 | 600 | – | CNC(=O)c1ccccc1Nc1nc(Nc2ccc(N3CCC(N4CCCCC4)CC3)cc2OC)ncc1Cl [Example 7-1]
6.9 | 70 | 80 | 1200 | – | CCCS(=O)(=O)c1ccccc1Nc1nc(Nc2cc(N3CCN(C(C)=O)CC3)ccc2OC)ncc1Cl [Example 26-15]
9.2 | 420 | 80 | 170 | – | CNS(=O)(=O)c1ccccc1Nc1nc(Nc2ccc(OC3CCN(C(C)C)C3)cc2OC)ncc1Cl (centres unmarked) [Example 20-28]
1.9 | 340 | 70 | 200 | – | CCCS(=O)(=O)c1ccccc1Nc1nc(Nc2ccc(OC3CCN(C)CC3)cc2OC)ncc1Cl [Example 26-26]
5.9 | 120 | 370 | 50 | – | COc1cc(N2CCOCC2)ccc1Nc1ncc(Cl)c(Nc2ccccc2S(=O)(=O)CC(C)C)n1 [Example 32-2]
2.9 | 2570 | 90 | 200 | – | COc1cc(N2CCN(C3CCN(C)CC3)CC2)ccc1Nc1ncc(Cl)c(Nc2ccccc2S(=O)(=O)C(C)C)n1 [Example 28-24]
1.6 | 140 | 340 | 200 | – | COc1cc(N2CCC(N3CCN(C)CC3)CC2)ccc1Nc1ncc(Cl)c(Nc2ccccc2S(=O)(=O)NC(C)C)n1 [Example 19-4]
1 | 250 | 70 | 80 | – | CNS(=O)(=O)c1ccccc1Nc1nc(Nc2cc(-c3cccnc3)ccc2OC)ncc1Br [Example 3-66]
1.9 | 3710 | 440 | 80 | – | COc1cc(N2CCN(CCO)CC2)ccc1Nc1ncc(Cl)c(Nc2ccccc2S(=O)(=O)C(C)C)n1 [Example 28-2]
11 | 90 | 90 | 50 | – | CNS(=O)(=O)c1ccccc1Nc1nc(Nc2ccc(N3CCS(=O)(=O)CC3)cc2OC)ncc1Br [Example 3-44]
8.7 | 150 | 90 | 90 | – | CNS(=O)(=O)c1ccccc1Nc1nc(Nc2cc(OC)c(OC)cc2C)ncc1Cl [Example 20-35]
3 | 640 | 130 | 400 | – | COc1cc(OC2CCN(C)CC2)ccc1Nc1ncc(Cl)c(Nc2ccccc2S(=O)(=O)NC2CCCC2)n1 [Example 25-2]
1.5 | 800 | 400 | 200 | – | CCC(CC)NS(=O)(=O)c1ccccc1Nc1nc(Nc2ccc(N3CCN(C)CC3)cc2OC)ncc1Cl [Example 23-2]
3.6 | 50 | 440 | 110 | – | COc1cc(N2CCOCC2)ccc1Nc1ncc(Cl)c(Nc2ccccc2S(=O)(=O)NC2CCC2)n1 [Example 24-1]
9 | 200 | 300 | 40 | – | CNS(=O)(=O)c1ccccc1Nc1nc(Nc2cccc3[nH]ccc23)ncc1Br [Example 3-11]
13 | 90 | 2200 | 700 | – | CCC(CC)S(=O)(=O)c1ccccc1Nc1nc(Nc2ccc(N3CCOCC3)cc2OC)ncc1Cl [Example 29-1]

IC50 ([1]; read-out: FAK IC50) [nM] | IC50 [2] [nM] | IC50 [3] [nM] | IC50 [4] [nM] | IC50 ([1]; FAK assay system, read-out: FAK inhibition IC50) [nM] | Compound
12 | 300 | 460 | 300 | – | COc1cc(N2CCCC(C(N)=O)C2)ccc1Nc1ncc(Cl)c(Nc2ccccc2S(=O)(=O)C(C)C)n1 (centres unmarked) [Example 28-1]
21 | > 10000 | 980 | 520 | – | CNS(=O)(=O)c1ccccc1Nc1nc(Nc2cc(F)ccc2OC)ncc1Br [Example 3-81]
1.3 | 1020 | 560 | 60 | – | COc1cc(NCC(C)(C)CN(C)C)ccc1Nc1ncc(Cl)c(Nc2ccccc2S(=O)(=O)NC(C)C)n1 [Example 19-10]
7.6 | 330 | 360 | 300 | – | CNC(=O)c1ccccc1Nc1nc(Nc2ccc(N3CCC(N4CCN(C)CC4)CC3)cc2OC)ncc1Cl [Example 7-14]
42 | 2780 | 2500 | 400 | – | CNS(=O)(=O)c1ccccc1Nc1nc(Nc2ccccc2OC(F)(F)F)ncc1Cl [Example 20-3]
2.1 | 390 | 110 | 500 | – | COc1cc(OC2CCN(C)CC2)ccc1Nc1ncc(Cl)c(Nc2ccccc2S(=O)(=O)NC2CCC2)n1 [Example 24-2]
12 | 290 | 50 | 850 | – | CNS(=O)(=O)c1ccccc1Nc1nc(Nc2ccc(OC3CCN(C)CC3)cc2OC)ncc1Cl [Example 20-27]
8 | 150 | 100 | 80 | – | CNS(=O)(=O)c1ccccc1Nc1nc(Nc2cc(-c3ccncc3)ccc2OC)ncc1Br [Example 3-65]
4.4 | 290 | 350 | 50 | – | CCCS(=O)(=O)c1ccccc1Nc1nc(Nc2ccc(N3CCOCC3)cc2OC)ncc1Cl [Example 26-1]
9 | 630 | 700 | > 10000 | – | CNC1CCN(c2ccc(Nc3ncc(Cl)c(Nc4ccccc4S(=O)(=O)NC(C)C)n3)c(OC)c2F)C1 (centres unmarked) [Example 19-12]
2.8 | < 80 | 200 | 30 | 1 to 5 | CNS(=O)(=O)c1ccccc1Nc1nc(Nc2cc(OC)c(OC)cc2C)ncc1Br [Example 3-17]
8 | 280 | 370 | 100 | – | CCCCS(=O)(=O)c1ccccc1Nc1nc(Nc2ccc(N3CCOCC3)cc2OC)ncc1Cl [Example 34-1]
1.7 | 820 | 1120 | 1000 | – | CCC(CC)NS(=O)(=O)c1ccccc1Nc1nc(Nc2ccc(N3CCC(NC)C3)cc2OC)ncc1Cl (centres unmarked) [Example 23-3]
2.9 | 270 | 390 | 300 | – | CNC(=O)c1ccccc1Nc1nc(Nc2ccc(N3CCN(C)CC3)cc2OC)ncc1Cl [Example 7-3]
2.5 | 770 | 1200 | 600 | – | CNC(=O)c1ccccc1Nc1nc(Nc2ccc(N3CCC(N(C)C)C3)cc2OC)ncc1Cl (centres unmarked) [Example 7-11]
21 | > 10000 | 2000 | 170 | – | CNS(=O)(=O)c1ccccc1Nc1nc(Nc2ccc(C)cc2OC)ncc1Br [Example 3-5]
11 | 1630 | 290 | 30 | – | CNS(=O)(=O)c1ccccc1Nc1nc(Nc2cc(OCCCN3CCOCC3)ccc2OC)ncc1Br [Example 3-73]
